Test results as given in ChEMBL document CHEMBL3044830, “Synthesis, characterization, antibacterial, antifungal, and immunomodulating activities of gatifloxacin derivatives” (Med Chem Res, 2010).

What was measured:
Klebsiella pneumoniae [1] = assay: Antibacterial activity against Klebsiella pneumoniae assessed as concentration required to obtain a zone of inhibition of 20 mm after 18 to 24 hr by disk diffusion method; format: functional
Citrobacter [2] = assay: Antibacterial activity against Citrobacter assessed as concentration required to obtain a zone of inhibition of 10 mm after 18 to 24 hr by disk diffusion method; format: functional
Shigella sp. [3] = assay: Antibacterial activity against Shigella typhi assessed as concentration required to obtain a zone of inhibition of 5 mm after 18 to 24 hr by disc diffusion method; format: functional
Staphylococcus aureus [4] = assay: Antibacterial activity against methicillin-resistant Staphylococcus aureus assessed as concentration required to obtain a zone of inhibition of 5 mm after 18 to 24 hr by disk diffusion method; format: functional
Bacillus subtilis [5] = assay: Antibacterial activity against Bacillus subtilis assessed as concentration required to obtain a zone of inhibition of 20 mm after 18 to 24 hr by disk diffusion method; format: functional
Klebsiella pneumoniae [6] = assay: Antibacterial activity against Klebsiella pneumoniae assessed as zone of inhibition at 5 to 40 ug/ml after 18 to 24 hr by disk diffusion method relative to gatifloxacin; format: functional
Shigella flexneri [7] = assay: Antibacterial activity against Shigella flexneri assessed as concentration required to obtain a zone of inhibition of 10 mm after 18 to 24 hr by disk diffusion method; format: functional
Pseudomonas aeruginosa [8] = assay: Antibacterial activity against Pseudomonas aeruginosa assessed as zone of inhibition at 5 to 40 ug/ml after 18 to 24 hr by disk diffusion method relative to gatifloxacin; format: functional
Citrobacter [9] = assay: Antibacterial activity against Citrobacter assessed as concentration required to obtain a zone of inhibition of 20 mm after 18 to 24 hr by disk diffusion method; format: functional
Shigella flexneri [10] = assay: Antibacterial activity against Shigella flexneri assessed as zone of inhibition at 5 to 40 ug/ml after 18 to 24 hr by disk diffusion method relative to gatifloxacin; format: functional
Proteus mirabilis [11] = assay: Antibacterial activity against Proteus mirabilis assessed as zone of inhibition at 5 to 40 ug/ml after 18 to 24 hr by disc diffusion method relative to gatifloxacin; format: functional
Shigella sp. [12] = assay: Antibacterial activity against Shigella typhi assessed as zone of inhibition after 18 to 24 hr by disc diffusion method relative to gatifloxacin; format: functional
Shigella sp. [13] = assay: Antibacterial activity against Shigella typhi assessed as concentration required to obtain a zone of inhibition of 10 mm after 18 to 24 hr by disc diffusion method; format: functional
Bacillus subtilis [14] = assay: Antibacterial activity against Bacillus subtilis assessed as concentration required to obtain a zone of inhibition of 10 mm after 18 to 24 hr by disk diffusion method; format: functional
Proteus mirabilis [15] = assay: Antibacterial activity against Proteus mirabilis assessed as concentration required to obtain a zone of inhibition of 10 mm after 18 to 24 hr by disc diffusion method; format: functional
[16] = Antibacterial activity against Hofmanni bacterium assessed as concentration required to obtain a zone of inhibition of 5 mm after 18 to 24 hr by disc diffusion method
Escherichia coli [17] = assay: Antibacterial activity against Escherichia coli assessed as concentration required to obtain a zone of inhibition of 10 mm after 18 to 24 hr by disk diffusion method; format: functional
Pseudomonas aeruginosa [18] = assay: Antibacterial activity against Pseudomonas aeruginosa assessed as concentration required to obtain a zone of inhibition of 10 mm after 18 to 24 hr by disk diffusion method; format: functional
[19] = Antibacterial activity against Hofmanni bacterium assessed as concentration required to obtain a zone of inhibition of 10 mm after 18 to 24 hr by disc diffusion method
Escherichia coli [20] = assay: Antibacterial activity against Escherichia coli assessed as concentration required to obtain a zone of inhibition of 5 mm after 18 to 24 hr by disk diffusion method; format: functional
Escherichia coli [21] = assay: Antibacterial activity against Escherichia coli assessed as zone of inhibition at 5 to 40 ug/ml after 18 to 24 hr by disk diffusion method relative to gatifloxacin; format: functional
Citrobacter [22] = assay: Antibacterial activity against Citrobacter assessed as zone of inhibition at 5 to 40 ug/ml after 18 to 24 hr by disk diffusion method relative to gatifloxacin; format: functional
Pseudomonas aeruginosa [23] = assay: Antibacterial activity against Pseudomonas aeruginosa assessed as concentration required to obtain a zone of inhibition of 5 mm after 18 to 24 hr by disk diffusion method; format: functional
Escherichia coli [24] = assay: Antibacterial activity against Escherichia coli assessed as concentration required to obtain a zone of inhibition of 20 mm after 18 to 24 hr by disk diffusion method; format: functional
[25] = Antibacterial activity against Hofmanni bacterium assessed as concentration required to obtain a zone of inhibition of 20 mm after 18 to 24 hr by disc diffusion method
Proteus mirabilis [26] = assay: Antibacterial activity against Proteus mirabilis assessed as concentration required to obtain a zone of inhibition of 20 mm after 18 to 24 hr by disc diffusion method; format: functional
[27] = Antibacterial activity against Hofmanni bacterium assessed as zone of inhibition after 18 to 24 hr by disc diffusion method relative to gatifloxacin
Proteus mirabilis [28] = assay: Antibacterial activity against Proteus mirabilis assessed as concentration required to obtain a zone of inhibition of 5 mm after 18 to 24 hr by disc diffusion method; format: functional
Staphylococcus aureus [29] = assay: Antibacterial activity against methicillin-resistant Staphylococcus aureus assessed as concentration required to obtain a zone of inhibition of 20 mm after 18 to 24 hr by disk diffusion method; format: functional
Staphylococcus aureus [30] = assay: Antibacterial activity against methicillin-resistant Staphylococcus aureus assessed as zone of inhibition at 5 to 40 ug/ml after 18 to 24 hr by disk diffusion method relative to gatifloxacin; format: functional
Pseudomonas aeruginosa [31] = assay: Antibacterial activity against Pseudomonas aeruginosa assessed as concentration required to obtain a zone of inhibition of 20 mm after 18 to 24 hr by disk diffusion method; format: functional
Bacillus subtilis [32] = assay: Antibacterial activity against Bacillus subtilis assessed as zone of inhibition at 5 to 40 ug/ml after 18 to 24 hr by disk diffusion method relative to gatifloxacin; format: functional
Shigella flexneri [33] = assay: Antibacterial activity against Shigella flexneri assessed as concentration required to obtain a zone of inhibition of 5 mm after 18 to 24 hr by disk diffusion method; format: functional
Klebsiella pneumoniae [34] = assay: Antibacterial activity against Klebsiella pneumoniae assessed as concentration required to obtain a zone of inhibition of 5 mm after 18 to 24 hr by disk diffusion method; format: functional
Citrobacter [35] = assay: Antibacterial activity against Citrobacter assessed as concentration required to obtain a zone of inhibition of 5 mm after 18 to 24 hr by disk diffusion method; format: functional
Klebsiella pneumoniae [36] = assay: Antibacterial activity against Klebsiella pneumoniae assessed as concentration required to obtain a zone of inhibition of 10 mm after 18 to 24 hr by disk diffusion method; format: functional
Shigella flexneri [37] = assay: Antibacterial activity against Shigella flexneri assessed as concentration required to obtain a zone of inhibition of 20 mm after 18 to 24 hr by disk diffusion method; format: functional
Bacillus subtilis [38] = assay: Antibacterial activity against Bacillus subtilis assessed as concentration required to obtain a zone of inhibition of 5 mm after 18 to 24 hr by disk diffusion method; format: functional

## CO/N=C1\CN(c2nc3c(cc2F)c(=O)c(C(=O)O)cn3C2CC2)CC1CN.CS(=O)(=O)O (stereo not drawn) [GEMIFLOXACIN MESYLATE]
Klebsiella pneumoniae [1]
  Activity: 12 µg/mL
Citrobacter [2]
  Activity: 9 µg/mL
Shigella sp. [3]
  Activity: 8 µg/mL
Staphylococcus aureus [4]
  Activity: 9 µg/mL
Bacillus subtilis [5]
  Activity: 8 µg/mL
Klebsiella pneumoniae [6]
  inhibition zone (IZ): 84.2%
Shigella flexneri [7]
  Activity: 8 µg/mL
Pseudomonas aeruginosa [8]
  inhibition zone (IZ): 75%
Citrobacter [9]
  Activity: 11 µg/mL
Shigella flexneri [10]
  inhibition zone (IZ): 61.4%
Proteus mirabilis [11]
  inhibition zone (IZ): 82.5%
Shigella sp. [12]
  inhibition zone (IZ): 75.5%
Shigella sp. [13]
  Activity: 9 µg/mL
Bacillus subtilis [14]
  Activity: 7 µg/mL
Proteus mirabilis [15]
  Activity: 11 µg/mL
[16]
  Activity: 5 µg/mL
Escherichia coli [17]
  Activity: 9 µg/mL
Pseudomonas aeruginosa [18]
  Activity: 9 µg/mL
[19]
  Activity: 7 µg/mL
Escherichia coli [20]
  Activity: 7 µg/mL
Escherichia coli [21]
  inhibition zone (IZ): 75.72%
Citrobacter [22]
  inhibition zone (IZ): 42.83%
Pseudomonas aeruginosa [23]
  Activity: 8 µg/mL
Escherichia coli [24]
  Activity: 10 µg/mL
[25]
  Activity: 8 µg/mL
Proteus mirabilis [26]
  Activity: 12 µg/mL
[27]
  inhibition zone (IZ): 56.6%
Proteus mirabilis [28]
  Activity: 10 µg/mL
Staphylococcus aureus [29]
  Activity: 14 µg/mL
Staphylococcus aureus [30]
  inhibition zone (IZ): 69.8%
Pseudomonas aeruginosa [31]
  Activity: 10 µg/mL
Bacillus subtilis [32]
  inhibition zone (IZ): 46.3%
Shigella flexneri [33]
  Activity: 7 µg/mL
Klebsiella pneumoniae [34]
  Activity: 10 µg/mL
Citrobacter [35]
  Activity: 7 µg/mL
Klebsiella pneumoniae [36]
  Activity: 11 µg/mL
Shigella flexneri [37]
  Activity: 13 µg/mL
Bacillus subtilis [38]
  Activity: 5 µg/mL
